Results: patent US20150157588A1, “Pharmaceutical Composition Comprising Amino-Phenyl-Acetic Acid Octadec-(Z)-9-enyl Ester and Use Thereof for Treating Tumors” (Yeda Research and Development Co., Ltd., priority 2012, published 2015)

System: anti-CD3-activated T cells
Test: Microarray gene expression, T cells activated by anti-CD3 antibody
Assay type: cell-based, human
Conditions: for Fold change CCL7: 208075_s_at; for Fold change INDO: 210029_at; for Fold change RSAD2: 213797_at; for Fold change LYZ /// RFK: 213975_s_at; for Fold change CCL8: 214038_at; for Fold change CXCL5: 215101_s_at; for Fold change ANKRD12: 216563_at; for Fold change CCL2: 216598_s_at; for Fold change HIG2: 218507_at; for Fold change C1orf165: 219670_at; for Fold change IL1F9: 220322_at; for Fold change IL22: 221165_s_at; for Fold change PDE3B: 222330_at
Protocol: CD3 positive T cells were extracted from a healthy donor according to a standard protocol, and seeded in T cell medium including RPMI, 10% fetal calf serum, sodium pyruvate, L-Glutamine, and Penicillin/Streptomycin. Following an overnight incubation with medium, the cells were treated by incubating for 2 hours at 37° C. with amino-phenyl-acetic acid octadec-(Z)-9-enyl ester at a concentration of 10 micrograms/ml in a final volume of 10 ml in T-cell medium with or without 0.05% ethanol. After incubation, half the cells from each treatment were centrifuged and 2 ml of Tri-reagent (Sigma) were added to the pellet. The other half of the cells from each treatment were transferred to anti-CD3 antibody coated 24 well plates for an overnight incubation at 37° C. Coating plates with an anti-CD3 antibody was carried out by incubating with 2 micrograms/ml of OKT3 anti-CD3 antibody overnight at 4° C., washing three times with PBS and blocking with filtered 1% Bovine Serum Albumin for 1 hour. After activation with anti-CD3 antibody, cells were centrifuged and 2 ml of Tri-reagent were added to the pellet.
RNA was extracted from unstimulated cells and from cells activated with anti-CD3 according to standard protocols and used for hybridization with a Human Genome U133A 2.0 (Affymetrix, Catalogue number 900468), according to the manufacturer's instructions. The results of the hybridization were read by a GeneChip scanner 3000 (Affymetrix) and analyzed by QuantArray (GSI lumonics).
The effects of amino-phenyl-acetic acid octadec-(Z)-9-enyl ester in ethanol solution or in an aqueous vehicle (hereinafter termed “in PBS”) on gene expression in unstimulated T cells and T cells activated by anti-CD3 antibody were compared by microarray analysis.

[1] = anti-CD3-activated T cells, in ethanol solution vs in PBS
[2] = anti-CD3-activated T cells, in ethanol solution vs untreated
[3] = anti-CD3-activated T cells, in PBS vs untreated

`CCCCCCCC/C=C\CCCCCCCCOC(=O)C(N)c1ccccc1` (centres unmarked) [amino-phenyl-acetic acid octadec-(Z)-9-enyl ester] was tested, and the “Fold change CCL7” value [1] was 2.01, the “Fold change CCL7” value [2] was 1.991 and the “Fold change NTRK1” value (208605_s_at, anti-CD3-activated T cells, in ethanol solution vs untreated) was 2.03. For the same compound, the “Fold change TFPI2” value (209277_at, anti-CD3-activated T cells, in ethanol solution vs in PBS) was 2.53, the “Fold change TFPI2” value (209277_at, anti-CD3-activated T cells, in ethanol solution vs untreated) was 3.32 and the “Fold change TFPI2” value (209278_s_at, anti-CD3-activated T cells, in ethanol solution vs in PBS) was 2.99. The “Fold change TFPI2” value (209278_s_at, anti-CD3-activated T cells, in ethanol solution vs untreated) was 3.87, the “Fold change CHI3L1” value (209395_at, anti-CD3-activated T cells, in ethanol solution vs in PBS) was 2.69 and the “Fold change CHI3L1” value (209395_at, anti-CD3-activated T cells, in ethanol solution vs untreated) was 3.40. For the same compound, the “Fold change CHI3L1” value (209396_s_at, anti-CD3-activated T cells, in ethanol solution vs in PBS) was 2.15, the “Fold change CHI3L1” value (209396_s_at, anti-CD3-activated T cells, in ethanol solution vs untreated) was 2.58 and the “Fold change INDO” value [1] was 2.08. The “Fold change INDO” value [2] was 2.47, the “Fold Change SPAG1” value (210117_at, anti-CD3-activated T cells, in ethanol solution vs in PBS) was −1.90 and the “Fold change IL1A” value (210118_s_at, anti-CD3-activated T cells, in ethanol solution vs untreated) was 2.02. For the same compound, the “Fold change PLA2G4A” value (210145_at, anti-CD3-activated T cells, in ethanol solution vs untreated) was 2.00, the “Fold Change LY9” value (210370_s_at, anti-CD3-activated T cells, in ethanol solution vs in PBS) was 2.25 and the “Fold change INHBA” value (210511_s_at, anti-CD3-activated T cells, in ethanol solution vs untreated) was 1.96. The “Fold change FPRL1” value (210772_at, anti-CD3-activated T cells, in ethanol solution vs untreated) was 2.00, the “Fold change PLAUR” value (210845_s_at, anti-CD3-activated T cells, in ethanol solution vs in PBS) was 2.01 and the “Fold change PLAUR” value (210845_s_at, anti-CD3-activated T cells, in ethanol solution vs untreated) was 2.02. For the same compound, the “Fold change LYST” value (210943_s_at, anti-CD3-activated T cells, in ethanol solution vs untreated) was 2.45, the “Fold change SERPINA1” value (211429_s_at, anti-CD3-activated T cells, in ethanol solution vs untreated) was 2.06 and the “Fold change IL8” value (211506_s_at, anti-CD3-activated T cells, in ethanol solution vs untreated) was 2.69. The “Fold change PLAUR” value (211924_s_at, anti-CD3-activated T cells, in ethanol solution vs untreated) was 1.91, the “Fold Change MCM4” value (212141_at, anti-CD3-activated T cells, in ethanol solution vs in PBS) was −1.98 and the “Fold Change MCM4” value (212142_at, anti-CD3-activated T cells, in ethanol solution vs in PBS) was −2.80. The “Fold change IL1RN” value (212657_s_at, anti-CD3-activated T cells, in ethanol solution vs untreated) was 1.98, the “Fold change IL1RN” value (212659_s_at, anti-CD3-activated T cells, in ethanol solution vs untreated) was 1.90 and the “Fold change RSAD2” value [1] was 3.11. The “Fold change RSAD2” value [2] was 2.28, the “Fold change LYZ /// RFK” value [1] was 2.02 and the “Fold change LYZ /// RFK” value [2] was 2.00. The “Fold change CCL8” value [1] was 2.33, the “Fold change CCL8” value [2] was 2.23 and the “Fold change CXCL5” value [3] was 1.995. The “Fold change CXCL5” value [2] was 2.31, the “Fold change SOD2” value (215223_s_at, anti-CD3-activated T cells, in ethanol solution vs untreated) was 1.95 and the “Fold change SNX9” value (215284_at, anti-CD3-activated T cells, in ethanol solution vs untreated) was 2.44. For the same compound, the “Fold change LYST” value (215415_s_at, anti-CD3-activated T cells, in ethanol solution vs untreated) was 2.09, the “Fold Change LY9” value (215967_s_at, anti-CD3-activated T cells, in ethanol solution vs in PBS) was 2.05 and the “Fold Change LY9” value (215967_s_at, anti-CD3-activated T cells, in ethanol solution vs untreated) was 2.2. For the same compound, the “Fold change IL1RN” value (216243_s_at, anti-CD3-activated T cells, in ethanol solution vs untreated) was 1.99, the “Fold change ANKRD12” value [3] was 1.94 and the “Fold change ANKRD12” value [2] was 2.48. The “Fold change probeset 216575_at” value [1] was 2.69, the “Fold change probeset 216575_at” value [2] was 2.31 and the “Fold change CCL2” value [1] was 5.27. The “Fold change CCL2” value [2] was 5.00, the “Fold change SLC7A11” value (217678_at, anti-CD3-activated T cells, in ethanol solution vs untreated) was 1.92 and the “Fold Change TNS3” value (217853_at, anti-CD3-activated T cells, in ethanol solution vs in PBS) was 2.00. For the same compound, the “Fold change FLJ20273” value (218035_s_at, anti-CD3-activated T cells, in ethanol solution vs untreated) was 2.17, the “Fold change HIG2” value [1] was −2.31 and the “Fold change HIG2” value [2] was −2.17. For the same compound, the “Fold Change DTL” value (218585_s_at, anti-CD3-activated T cells, in ethanol solution vs in PBS) was −1.93, the “Fold change ANKRD11” value (219437_s_at, anti-CD3-activated T cells, in ethanol solution vs untreated) was 2.84 and the “Fold change C1orf165” value [1] was −2.22. For the same compound, the “Fold change C1orf165” value [2] was −2.29, the “Fold change IL1F9” value [1] was 2.74 and the “Fold change IL1F9” value [2] was 3.10. The “Fold change MCM10” value (220651_s_at, anti-CD3-activated T cells, in ethanol solution vs untreated) was −2.05, the “Fold change IL22” value [1] was −3.03 and the “Fold change IL22” value [2] was −2.63. For the same compound, the “Fold Change BNIP3L” value (221478_at, anti-CD3-activated T cells, in ethanol solution vs in PBS) was −2.45, the “Fold Change BNIP3L” value (221478_at, anti-CD3-activated T cells, in ethanol solution vs untreated) was −2.28 and the “Fold Change BNIP3L” value (221479_s_at, anti-CD3-activated T cells, in ethanol solution vs in PBS) was −2.00. For the same compound, the “Fold Change GINS2” value (221521_s_at, anti-CD3-activated T cells, in ethanol solution vs in PBS) was −1.99, the “Fold change GRSF1” value (221917_s_at, anti-CD3-activated T cells, in PBS vs untreated) was 1.92 and the “Fold change PDE3B” value [1] was 1.99. The “Fold change PDE3B” value [2] was 1.97 and the down-regulated genes (activated T cells, in PBS vs untreated) was “no down-regulated genes”.
